In patent US8017727B2, “Conjugates of membrane translocating agents and pharmaceutically active agents” (Merrion Research III Limited, priority 1999, dated 2011):
Like-named read-outs stand apart in the source and are kept apart here.

Tests used:
kappa receptor = target: T1, kappa receptor (Rattus norvegicus, UniProt P34975); experiment: Competition for binding of a radiolabelled kappa peptide to rat brain homogenates; details: for opioid activity post conjugation: compared to unconjugated H-ffir-NH2 or to the ELAN207 conjugate
T1 construct: from tissue; host or cells: rat brain homogenate
Procedure: The integrity of the opioid peptide was evaluated post conjugation to assess suitability for inclusion in further studies. Opioid activity was assessed in vitro using a competition assay (competition for binding of a radiolabelled kappa peptide to rat brain homogenates).

[1] = Systemic 3H bioavailability of kappa peptide conjugates, conscious rat model (plasma); format: in vivo, Wistar rats
Procedure: The possible enhancing effects of ELAN094 and ELAN207 MTLPs (SEQ ID NOs 2 and 60) on intestinal absorption of the kappa peptide were examined in a conscious rat model.
The study was non-randomised, parallel group design. Wistar rats within the 250-350 g weight range were used. All animals were fasted for a period of 16 h prior to study initiation. Water was available at all times.
Intravenous injection of 10 μCi of ^3H-kappa peptide-Kaffiralin-1 (plain kappa peptide) (tail vein injection).
Intraduodenal instillation of 100 μCi of ^3H-kappa peptide-Elan094 (Analysed). The Elan094 ligand contains a membrane translocating sequence.
Intraduodenal instillation of 100 μCi of ^3H-kappa peptide-Elan207 (Analysed). The Elan207 ligand contains a membrane translocating sequence.
Intraduodenal instillation of 100 μCi of ^3H-kappa peptide-Kaffiralin-1.
The plasma (100-250 μl) was made up to 1 ml with BTS-450 (an organic tissue solubiliser) and incubated for 1 hour. Ten ml of Scintillation fluid was added and the radioactivity was measured.
The study was a non-randomised, parallel group biostudy designed to evaluate the systemic bioavailability of tritium labelled kappa peptide conjugates after intra-duodenal instillation in the conscious rat model. Each rat only received one treatment and the plasma samples were analysed for tritium content. The calculation of AUClast, Amax, tmax, Volume of Distribution (V d) and Clearance was based on base line corrected data. The absolute bioavailability was calculated using potency corrected data.

[2] = 3H tissue distribution of kappa peptide conjugates, conscious rat model; format: in vivo, Wistar rats; details: potency corrected; for Kidney, % of administered dose / Plasma, % of administered dose / Total Recovery, % of administered dose: t=6 h
Procedure: The tissue was weighed and a representative sample, (ca 0.1 g), was removed to a scintillation vial. The tissue was solubilzed with 1 ml of BTS-450 (an organic tissue solubliser). Ten ml of scintillation fluid was added and the radioactivity was measured. The radioactivity was expressed as dpm/initial weight of tissue.

[3] = intraduodenal (ID), 100 μCi, Elan207 = original group
[4] = IV, 10 μCi, listed as 3H Kappa peptide-Kaffiralin-1
[5] = IC50, Table 11, first IC50 column

Question: Which IC50 (kappa receptor; Day 5, second of duplicates, read-out: IC50) does the source give for `CC[C@@H](C)[C@@H](NC(=O)[C@@H](Cc1ccccc1)NC(=O)[C@H](N)Cc1ccccc1)C(=O)N[C@H](CCCNC(=N)N)C(=O)NCCCC[C@@H](NC(=O)[C@H]1CCCN1C(=O)[C@@H](C)NC(=O)[C@@H](C)NC(=O)[C@@H](CC(C)C)NC(=O)[C@@H](CC(C)C)NC(=O)[C@H](NC(=O)[C@H]1CCCN1C(=O)[C@@H](CC(C)C)NC(=O)[C@@H](CC(C)C)NC(=O)[C@H](NC(=O)[C@@H](C)NC(=O)[C@@H](C)NC(=O)[C@@H](C)NC(=O)[C@@H](CCCCN)NC(=O)[C@H](N)CCCCN)C(C)C)C(C)C)C(N)=O` [P10-114, H-kkaaavllpvllaapk(ffir-NH-e)-NH2] here?
Answer: 1 nM

Question: And the IC50 (kappa receptor; Day 82, first of triplicates, read-out: IC50)?
Answer: 0.8 nM

Question: And the IC50 (kappa receptor; Day 82, second of triplicates, read-out: IC50)?
Answer: 0.8 nM

Question: What about the “opioid activity post conjugation” value (kappa receptor) of the same compound?
Answer: retained, or even enhanced

Question: With `CC[C@@H](C)[C@@H](NC(=O)[C@@H](Cc1ccccc1)NC(=O)[C@H](N)Cc1ccccc1)C(=O)N[C@H](CCCNC(=N)N)C(=O)NCCCC[C@H](NC(=O)[C@@H](CCCCN)NC(=O)[C@@H](CCCCN)NC(=O)[C@@H](C)NC(=O)[C@@H](C)NC(=O)[C@@H](C)NC(=O)[C@H](NC(=O)[C@@H](CC(C)C)NC(=O)[C@@H](CC(C)C)NC(=O)[C@H]1CCCN1C(=O)[C@H](NC(=O)[C@@H](CC(C)C)NC(=O)[C@@H](CC(C)C)NC(=O)[C@@H](C)NC(=O)[C@@H](C)NC(=O)[C@H]1CCCN1C(=O)[C@@H](N)CCCCNC(=O)CCCCCNC(=O)CCCC[C@@H]1SC[C@@H]2NC(=O)N[C@@H]21)C(C)C)C(C)C)C(N)=O` [P37-115, H-K(biotin-LC)paallvpllvaaakkK(ffir-NH-e)-NH2] as the compound, how does the “opioid activity post conjugation” value (kappa receptor) read?
Answer: activity equivalent to that observed with ELAN207

Question: Which results are given for `CC[C@@H](C)[C@@H](NC(=O)[C@@H](Cc1ccccc1)NC(=O)[C@H](N)Cc1ccccc1)C(=O)N[C@H](CCCNC(=N)N)C(N)=O` [3H-Kappa peptide-Kaffiralin-1]?
Answer: 3H AUClast [1, 3]: 73098.43±9493.88 dpm/ml·h; 3H Amax (maximum radioactivity) [1, 3]: 70925.33±23631.28 dpm/ml; 3H AUClast ([1]; intravenous (IV), 10 μCi): 132184.24±13288.32 dpm/ml·h; 3H Amax (maximum radioactivity) ([1]; intravenous (IV), 10 μCi): 903603.03±186855.31 dpm/ml; bioavailability ([1]; rat, plasma, intraduodenal (ID), 100 μCi, potency corrected, Elan207 = original group, read-out: Absolute 3H bioavailability): 7.94 ± 1.92%; clearance ([1]; rat, plasma, intravenous (IV), 10 μCi): 2.38 mL/min; Vd ([1]; rat, plasma, intravenous (IV), 10 μCi, read-out: Volume of Distribution): 0.964 ± 0.256 L; Catheter, % of administered dose ([2]; ID, 100 μCi): 0.06 ± 0.05%; GI Tissue, % of administered dose ([2]; ID, 100 μCi): 7.72 ± 4.98%; GI Washing, % of administered dose ([2]; ID, 100 μCi): 15.85 ± 5.00%; GI contents, % of administered dose ([2]; ID, 100 μCi): 37.31 ± 15.75%; Liver, % of administered dose ([2]; ID, 100 μCi): 0.63 ± 0.37%; Total GI (% recovery from GI tissue, GI contents & GI wash) ([2]; ID, 100 μCi): 60.87 ± 16.74%; Kidney, % of administered dose ([2]; ID, 100 μCi): 0.16 ± 0.17%; Plasma, % of administered dose ([2]; ID, 100 μCi): 0.06 ± 0.01%; Total Recovery, % of administered dose ([2]; ID, 100 μCi): 61.79 ± 16.93%; Plasma, % of administered dose ([2]; ID, 100 μCi, listed as 3H-Kappa peptide Kaffiralin-1): 0.06±0.01%; GI Tissue, % of administered dose ([2]; IV, 10 μCi): 1.62 ± 0.41%; GI Washing, % of administered dose ([2]; IV, 10 μCi): 1.98 ± 1.01%; GI contents, % of administered dose ([2]; IV, 10 μCi): 23.50 ± 11.04%; Liver, % of administered dose ([2]; IV, 10 μCi): 6.66 ± 1.77%; Total GI (% recovery from GI tissue, GI contents & GI wash) ([2]; IV, 10 μCi): 27.10 ± 11.93%; Liver, % of administered dose [2, 4]: 6.66±1.77%; Kidney, % of administered dose ([2]; IV, 10 μCi): 0.51 ± 0.08%; Plasma, % of administered dose ([2]; IV, 10 μCi): 0.16 ± 0.03%; Total Recovery, % of administered dose ([2]; IV, 10 μCi): 34.43 ± 13.36%; Plasma, % of administered dose [2, 4]: 0.16±0.03%; Total Recovery, % of administered dose ([2]; IV, 10 μCi, listed as 3H Kappa-peptide-Kaffiralin-1): 34.43±13.36%

Question: For `CC[C@@H](C)[C@@H](NC(=O)[C@@H](Cc1ccccc1)NC(=O)[C@H](N)Cc1ccccc1)C(=O)N[C@H](CCCNC(=N)N)C(=O)NCCCC[C@H](NC(=O)[C@@H]1CSSC[C@H](NC(=O)[C@H](CCCCN)NC(=O)[C@H](CCCCN)NC(=O)[C@@H](N)CCCCNC(=O)CCCCCNC(=O)CCCC[C@@H]2SC[C@@H]3NC(=O)N[C@@H]32)C(=O)N[C@@H](C)C(=O)N[C@@H](C)C(=O)N[C@@H](C(C)C)C(=O)N[C@@H](CC(C)C)C(=O)N[C@@H](CC(C)C)C(=O)N2CCC[C@H]2C(=O)N[C@@H](C(C)C)C(=O)N[C@@H](CC(C)C)C(=O)N[C@@H](CC(C)C)C(=O)N[C@@H](C)C(=O)N1)C(N)=O` [P37-116], which IC50 (kappa receptor; [5]) is on record?
Answer: 0.2 nM

Question: What about the “opioid activity post conjugation” value (kappa receptor) of the same compound?
Answer: activity equivalent to that observed with ELAN207

Question: Which “opioid activity post conjugation” value (kappa receptor) does the source give for `CC[C@@H](C)[C@@H](NC(=O)[C@@H](Cc1ccccc1)NC(=O)[C@H](N)Cc1ccccc1)C(=O)N[C@H](CCCNC(=N)N)C(=O)N[C@H](CCCCNC(=O)[C@H]1CCCN1C(=O)[C@@H](C)NC(=O)[C@@H](C)NC(=O)[C@@H](CC(C)C)NC(=O)[C@@H](CC(C)C)NC(=O)[C@H](NC(=O)[C@H]1CCCN1C(=O)[C@@H](CC(C)C)NC(=O)[C@@H](CC(C)C)NC(=O)[C@H](NC(=O)[C@@H](C)NC(=O)[C@@H](C)NC(=O)[C@@H](C)NC(=O)[C@@H](CCCCN)NC(=O)[C@H](N)CCCCN)C(C)C)C(C)C)C(N)=O` [P10-110, H-ffirk(kkaaavllpvllaap-NH-e)-NH2] here?
Answer: significantly reduced

Question: With `CC[C@@H](C)[C@@H](NC(=O)[C@@H](Cc1ccccc1)NC(=O)[C@H](N)Cc1ccccc1)C(=O)N[C@H](CCCNC(=N)N)C(=O)NCCCC[C@H](NC(=O)[C@@H]1CCCN1C(=O)[C@H](C)NC(=O)[C@H](C)NC(=O)[C@H](CC(C)C)NC(=O)[C@H](CC(C)C)NC(=O)[C@@H](NC(=O)[C@@H]1CCCN1C(=O)[C@H](CC(C)C)NC(=O)[C@H](CC(C)C)NC(=O)[C@@H](NC(=O)[C@H](C)NC(=O)[C@H](C)NC(=O)[C@H](C)NC(=O)[C@H](CCCCN)NC(=O)[C@H](CCCCN)NC(=O)[C@@H](N)CCCCNC(=O)CCCCCNC(=O)CCCC[C@@H]1SC[C@@H]2NC(=O)N[C@@H]21)C(C)C)C(C)C)C(N)=O` [P37-114] as the compound, how does the IC50 (kappa receptor; [5]) read?
Answer: 0.4 nM

Question: What about the “opioid activity post conjugation” value (kappa receptor) of the same compound?
Answer: activity equivalent to that observed with ELAN207

Question: For `CC[C@@H](C)[C@@H](NC(=O)[C@@H](Cc1ccccc1)NC(=O)[C@H](N)Cc1ccccc1)C(=O)N[C@H](CCCNC(=N)N)C(=O)NCCCC[C@@H](NC(=O)[C@H]1CCCN1C(=O)[C@@H](C)NC(=O)[C@@H](C)NC(=O)[C@@H](CC(C)C)NC(=O)[C@@H](CC(C)C)NC(=O)[C@H](NC(=O)[C@H]1CCCN1C(=O)[C@@H](CC(C)C)NC(=O)[C@@H](CC(C)C)NC(=O)[C@H](NC(=O)[C@@H](C)NC(=O)[C@@H](C)NC(=O)[C@@H](C)NC(=O)[C@@H](CCCCN)NC(=O)[C@@H](CCCCN)NC(=O)[C@@H](N)CCCCNC(=O)CCCCCNC(=O)CCCC[C@@H]1SC[C@@H]2NC(=O)N[C@@H]21)C(C)C)C(C)C)C(N)=O` [P34-154, H-K(biotin-LC)kkaaavllpvllaapk(ffir-NH-e)-NH2], which “opioid activity post conjugation” value (kappa receptor) is on record?
Answer: retained activity
